How the values were obtained:
Assay type in all cases: biochemical
firefly luciferase [1] = molecular target: T1, firefly luciferase (Photinus pyralis, UniProt P08659); experiment: Effect of inhibitor on the bioluminescent assay of ATP
T1 construct: purchased Lumac/3M Lumit PM
Description: Assay: from each sample triplicate 100 μl aliquots were taken. In those aliquots ATP was measured as described.
Assay: from each sample triplicate 100 μl aliquots were taken. ATP in those aliquots was measured as described.
Assay: From each sample triplicate 100 μl aliquots were taken and ATP was measured as described.
(§1) Protocol: Eight samples were prepared using materials described above and previously, as shown in TABLE 7-1 and incubated for various periods of time (i.e., 0, 5, 10 and […]) before aliquots were taken and assayed as described.
(§2) Protocol: Increasing concentrations of hexokinase, with and without PCMPSA were prepared according to TABLE 8-1 using materials described above and previously.

hexokinase = experiment: Inhibition of hexokinase by PCMPSA, bioluminescent ATP assay; conditions: PCMPSA 1.0 mM
Description: as §1, §2

acetate kinase = molecular target: T2, acetate kinase (Escherichia coli, UniProt P0A6A3); experiment: Inhibition of acetate kinase by PCMPSA; conditions: PCMPSA 0.5 mM
T2 construct: purchased Boehringer Mannheim
T2 sequence (P0A6A3 1-400): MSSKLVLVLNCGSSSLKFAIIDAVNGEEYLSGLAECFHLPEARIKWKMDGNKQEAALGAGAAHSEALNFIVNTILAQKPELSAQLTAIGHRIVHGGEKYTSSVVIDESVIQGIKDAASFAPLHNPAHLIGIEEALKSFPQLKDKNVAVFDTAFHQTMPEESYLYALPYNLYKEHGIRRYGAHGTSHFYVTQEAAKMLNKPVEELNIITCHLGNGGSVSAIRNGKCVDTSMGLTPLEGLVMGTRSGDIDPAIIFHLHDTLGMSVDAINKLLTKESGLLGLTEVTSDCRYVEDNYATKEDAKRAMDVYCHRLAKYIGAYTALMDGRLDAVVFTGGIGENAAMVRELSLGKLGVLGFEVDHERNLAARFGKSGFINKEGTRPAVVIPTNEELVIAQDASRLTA
Description: Acetate kinase was added to initiate enzyme activity. […] ATP in those aliquots was assayed as described.

glycerokinase = experiment: Inhibition of glycerokinase by PCMPSA in milk / orange juice samples; conditions: PCMPSA 0.5 mM; for % Control: control = same without glycerol; for RLU: milk/FRA, ATP added in SRA, 15 seconds
Description: Protocol: Samples were prepared containing: 1000 μl milk (local distributor, half-cream, sterilized); 800 μl FRA, 200 μl of a commercially available first releasing agent which is prepared in buffer for use with samples such as fruit juices (F-NRS, Lumac/3M); and 2.45 mM MgSO4. Glycerol, if present, was at a final concentration of 1.47 mM. ATP (10 mg/ml) was added in SRA to begin each assay, and PCMPSA if present, was also in that SRA aliquot in an amount sufficient to yield a final concentration of 0.5 mM.
(§3) To begin the assay, 100 μl of SRA/ATP ±PCMPSA was added to 50 μl of the appropriate sample. After 15 seconds (the period normally allowed for microbial nucleotide extraction using SRA) 100 μl Luciferase-luciferin solution was added and ATP was measured as described earlier.
(§4) Protocol: Samples with orange juice were prepared with 500 μl orange juice (Riedel, Netherlands, no preservatives, pasteurized), 500 μl buffered FRA, 3 mM glycerol, and with or without 0.5 mM PCMPSA. These were incubated over 0, 5, 10 and 20 minutes at four different glycerokinase concentrations.
(§5) Samples with milk were prepared similarly, but using 500 μl raw milk (fresh, local farmer) and 500 μl FRA in place of buffered FRA.

firefly luciferase [2] = molecular target: T1, firefly luciferase; experiment: Effect of inhibitor on the bioluminescent assay of ATP; remark: listed apart in the source
[3] = ATP inactivation by glycerokinase or apyrase in milk / orange juice samples; conditions: apyrase 0.096 U/mL; raw milk:FRA 500:500 μl
Description: Protocol: Four samples were prepared as shown in TABLE 11-1 using materials described above and earlier, and aliquots taken at 0, 2.5, 5, 10 and 20 minutes. […]
as §3, §4, §5

[4] = PCMPSA 1.0 mM alone, no hexokinase, buffer
[5] = PCMPSA 1.0 mM alone, no hexokinase, in SRA
[6] = acetate kinase 1.7 U/ml, magnesium acetate 3 mM, FRA
[7] = glycerokinase 0.42 U/ml, glycerol 1.47 mM
[8] = glycerokinase 1.04 U/ml, glycerol 1.47 mM
[9] = glycerokinase 2.06 U/ml, glycerol 1.47 mM
[10] = orange juice, glycerokinase 0.85 U/ml
[11] = orange juice, glycerokinase 2.12 U/ml
[12] = orange juice, glycerokinase 4.25 U/ml
[13] = raw milk, glycerokinase 0.85 U/ml
[14] = raw milk, glycerokinase 2.12 U/ml
[15] = raw milk, glycerokinase 4.25 U/ml

T1 sequence (P08659 whole entry): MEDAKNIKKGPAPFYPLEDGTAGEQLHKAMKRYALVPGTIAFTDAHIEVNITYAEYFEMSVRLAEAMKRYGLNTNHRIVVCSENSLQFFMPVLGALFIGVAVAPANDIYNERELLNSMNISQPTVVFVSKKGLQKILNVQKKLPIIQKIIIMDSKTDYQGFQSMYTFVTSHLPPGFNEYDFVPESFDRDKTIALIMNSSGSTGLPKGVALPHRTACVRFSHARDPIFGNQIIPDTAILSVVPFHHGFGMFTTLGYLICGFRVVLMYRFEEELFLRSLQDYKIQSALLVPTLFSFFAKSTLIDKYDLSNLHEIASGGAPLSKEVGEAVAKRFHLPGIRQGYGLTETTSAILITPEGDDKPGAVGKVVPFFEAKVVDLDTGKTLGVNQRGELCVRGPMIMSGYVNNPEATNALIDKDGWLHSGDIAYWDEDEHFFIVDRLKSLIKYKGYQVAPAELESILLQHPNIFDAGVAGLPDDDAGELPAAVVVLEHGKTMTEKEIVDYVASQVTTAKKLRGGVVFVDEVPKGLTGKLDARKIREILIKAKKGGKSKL

O=S(=O)(O)c1cc[c]([Hg][Cl])cc1 [PCMPSA, p-chloromercuriphenylsulfonic acid]
RLU 10 min. (firefly luciferase [1]; [4]): 29569 RLU
RLU 15 min. (firefly luciferase [1]; [4]): 29742 RLU
RLU 0 min. (firefly luciferase [1]; [5]): 26457 RLU
interference with the bioluminescent assay (conclusion in words) (firefly luciferase [1]; PCMPSA alone, sample 5, buffer): does not substantially interfere
inhibition of hexokinase (conclusion in words) (hexokinase; buffer): at least partly inhibited
RLU 5 min. (hexokinase; hexokinase 0.14 U/ml, buffer): 25884 RLU
RLU 10 min. (hexokinase; hexokinase 0.14 U/ml, buffer): 23717 RLU
RLU 15 min. (hexokinase; hexokinase 0.14 U/ml, buffer): 24771 RLU
RLU 5 min. (hexokinase; hexokinase 0.14 U, in SRA): 15397 RLU
RLU 10 min. (hexokinase; hexokinase 0.14 U, in SRA): 15221 RLU
RLU 5 min. (hexokinase; hexokinase 0.28 U/ml, buffer): 19116 RLU
RLU 10 min. (hexokinase; hexokinase 0.28 U/ml, buffer): 18228 RLU
RLU 15 min. (hexokinase; hexokinase 0.28 U/ml, buffer): 16919 RLU
RLU 5 min. (hexokinase; hexokinase 0.28 U, in SRA): 11674 RLU
RLU 10 min. (hexokinase; hexokinase 0.28 U, in SRA): 12473 RLU
RLU 5 min. (hexokinase; hexokinase 0.70 U/ml, buffer): 13353 RLU
RLU 10 min. (hexokinase; hexokinase 0.70 U/ml, buffer): 11760 RLU
RLU 15 min. (hexokinase; hexokinase 0.70 U/ml, buffer): 9375 RLU
RLU 5 min. (hexokinase; hexokinase 0.70 U, in SRA): 4212 RLU
RLU 10 min. (hexokinase; hexokinase 0.70 U, in SRA): 3011 RLU
inhibition of hexokinase (conclusion in words) (hexokinase; in the presence of SRA): sufficiently inhibited
inhibition of acetate kinase (conclusion in words) (acetate kinase): fairly effective
RLU 0 min. (acetate kinase; [6]): 4878 RLU
RLU 5 min. (acetate kinase; [6]): 2911 RLU
RLU 10 min. (acetate kinase; [6]): 2263 RLU
RLU 15 min. (acetate kinase; [6]): 2362 RLU
% Control (glycerokinase; [7]): 91%
RLU (glycerokinase; [7]): 26407 RLU
RLU (glycerokinase; glycerokinase 0.42 U/ml, no glycerol (control)): 28957 RLU
% Control (glycerokinase; [8]): 78%
RLU (glycerokinase; [8]): 17213 RLU
RLU (glycerokinase; glycerokinase 1.04 U/ml, no glycerol (control)): 21901 RLU
% Control (glycerokinase; [9]): 58%
RLU (glycerokinase; [9]): 6404 RLU
RLU (glycerokinase; glycerokinase 2.06 U/ml, no glycerol (control)): 15129 RLU
inhibition of glycerokinase (conclusion in words) (glycerokinase; orange juice and milk, glycerokinase up to 4.25 U/ml): sufficient to inhibit even the highest concentrations of enzyme used
RLU after 0 min (glycerokinase; [10]): 142369 RLU
RLU after 5 min (glycerokinase; [10]): 145464 RLU
RLU after 10 min (glycerokinase; [10]): 150927 RLU
RLU after 20 min (glycerokinase; [10]): 155082 RLU
RLU after 0 min (glycerokinase; [11]): 152487 RLU
RLU after 5 min (glycerokinase; [11]): 143354 RLU
RLU after 10 min (glycerokinase; [11]): 132269 RLU
RLU after 20 min (glycerokinase; [11]): 151899 RLU
RLU after 0 min (glycerokinase; [12]): 116232 RLU
RLU after 5 min (glycerokinase; [12]): 131999 RLU
RLU after 10 min (glycerokinase; [12]): 123137 RLU
RLU after 20 min (glycerokinase; [12]): 125784 RLU
RLU after 0 min (glycerokinase; [13]): 1382 RLU
RLU after 5 min (glycerokinase; [13]): 1494 RLU
RLU after 10 min (glycerokinase; [13]): 1348 RLU
RLU after 20 min (glycerokinase; [13]): 1280 RLU
RLU after 0 min (glycerokinase; [14]): 829 RLU
RLU after 5 min (glycerokinase; [14]): 1340 RLU
RLU after 10 min (glycerokinase; [14]): 1342 RLU
RLU after 20 min (glycerokinase; [14]): 1233 RLU
RLU after 0 min (glycerokinase; [15]): 1173 RLU
RLU after 5 min (glycerokinase; [15]): 1314 RLU
RLU after 10 min (glycerokinase; [15]): 1374 RLU
RLU after 20 min (glycerokinase; [15]): 1028 RLU
RLU 0 min. (firefly luciferase [2]; [4]): 29494 RLU
RLU 10 min. (firefly luciferase [2]; [5]): 25284 RLU
interference with the bioluminescent assay of ATP (conclusion in words) (firefly luciferase [2]; PCMPSA alone, in SRA): only very slight interference, if at all

apyrase
RLU after 0 min [3]: 64594 RLU
RLU after 2.5 min. [3]: 3272 RLU
RLU after 5 min [3]: 1130 RLU
RLU after 20 min [3]: 243 RLU

From patent US4906565A, “Method for the selective detection of microbial nucleotides” (Minnesota Mining and Manufacturing Company, priority 1986, dated 1990)
